The target of the assay is T1, SfGSTD1 (Spodoptera frugiperda, UniProt A0A9R0F5L2).
T1 construct: gene LOC118269876; not XP_035440580.2, another SfGSTD1 of the literature that clusters with SeGSTD3
T1 sequence (A0A9R0F5L2 1-244): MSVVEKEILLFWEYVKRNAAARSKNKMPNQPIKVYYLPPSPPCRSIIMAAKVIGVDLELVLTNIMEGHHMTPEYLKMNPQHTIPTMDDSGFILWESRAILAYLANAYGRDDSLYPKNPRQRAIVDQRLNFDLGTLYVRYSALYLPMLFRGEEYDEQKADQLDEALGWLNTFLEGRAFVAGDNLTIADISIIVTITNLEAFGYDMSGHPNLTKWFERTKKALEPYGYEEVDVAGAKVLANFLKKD
Kind of assay: GSH conjugation, absorbance […] nm. Type of assay: biochemical. The following applies: 4 mM GSH; CDNB 0.125 to 4 mM.

As a reminder, the Km is the substrate concentration at which the rate is half of its maximum. For `O=[N+]([O-])c1ccc(Cl)c([N+](=O)[O-])c1` [CDNB], the Km was 421 ± 109 µM.

The values are drawn from article PMC11943115, “GSTD1 Mediates the Tolerance to Abamectin and Beta-Cypermethrin in the Fall Armyworm Spodoptera frugiperda” (Insects, 2025).
